Laboratory results from patent US8952157B2, “Apoptosis-inducing agents for the treatment of cancer and immune and autoimmune diseases” (AbbVie Inc., priority 2008, dated 2015).

What follows are molecules tested against GST-Bcl-2 (Homo sapiens (Human), UniProt P10415) (assay: Time Resolved-Fluorescence Resonance Energy Transfer (TR-FRET) Bcl-2 binding assay). Conditions: GST-Bcl-2 1 nM, F-Bak peptide probe 100 nM, Tb-anti-GST antibody 1 nM; Ki by Wang's equation.
GST-Bcl-2, sequence (P10415 whole entry): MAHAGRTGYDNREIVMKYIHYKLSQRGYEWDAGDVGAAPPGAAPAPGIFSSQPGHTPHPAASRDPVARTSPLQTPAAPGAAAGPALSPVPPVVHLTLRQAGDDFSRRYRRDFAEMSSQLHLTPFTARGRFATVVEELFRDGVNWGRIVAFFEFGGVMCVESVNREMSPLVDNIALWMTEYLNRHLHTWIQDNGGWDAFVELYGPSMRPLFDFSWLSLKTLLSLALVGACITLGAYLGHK
Procedure, shortened: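 Ki values derived from TR-FRET displacement of F-Bak peptide from GST-Bcl-2, detected with Tb-labelled anti-GST antibody (ex 340, em 520/495 nm). Compound dilution series started at 50 μM (2× starting concentration); room-temperature incubation 3 hours.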
`CN1CCC(Nc2ccc(S(=O)(=O)NC(=O)c3ccc(N4CCN(CC5=C(c6ccc(Cl)cc6)CC(C)(C)CC5)CC4)cc3Oc3ccc4[nH]ccc4c3F)cc2[N+](=O)[O-])CC1` [Example 157, 4-(4-{[2-(4-chlorophenyl)-4,4-dimethylcyclohex-1-en-1-yl]methyl}piperazin-1-yl)-2-[(4-fluoro-1H-indol-5-yl)oxy]-N-({4-[(1-methylpiperidin-4-yl)amino]-3-nitrophenyl}sulfonyl)benzamide] gave a Ki of 720 pM.
In the case of `CC1(C)CCC(CN2CCN(c3ccc(C(=O)NS(=O)(=O)c4ccc(OCC5CCOCC5)c([N+](=O)[O-])c4)c(Oc4cnc(N)c(Cl)c4)c3)CC2)=C(c2ccc(Cl)cc2)C1` [Example 381, 2-[(6-amino-5-chloropyridin-3-yl)oxy]-4-(4-{[2-(4-chlorophenyl)-4,4-dimethylcyclohex-1-en-1-yl]methyl}piperazin-1-yl)-N-{[3-nitro-4-(tetrahydro-2H-pyran-4-ylmethoxy)phenyl]sulfonyl}benzamide], the Ki is reported as 20 pM.
Molecule `CN1CCN(Nc2ccc(S(=O)(=O)NC(=O)c3ccc(N4CCN(CC5=C(c6ccc(Cl)cc6)CC(C)(C)OC5)CC4)cc3Oc3cccc(Cl)c3)cc2[N+](=O)[O-])CC1` [Example 185, 2-(3-chlorophenoxy)-4-(4-{[4-(4-chlorophenyl)-6,6-dimethyl-5,6-dihydro-2H-pyran-3-yl]methyl}piperazin-1-yl)-N-({4-[(4-methylpiperazin-1-yl)amino]-3-nitrophenyl}sulfonyl)benzamide] has a Ki of 83 pM.
For `O=C(NS(=O)(=O)c1ccc(NCCCN2CCOCC2)c([N+](=O)[O-])c1)c1ccc(N2CCN(Cc3ccccc3-c3ccc(Cl)cc3)CC2)cc1Oc1cccc(-c2ccncc2)c1` [Example 98, 4-(4-((4′-chloro-1,1′-biphenyl-2-yl)methyl)piperazin-1-yl)-N-((4-((3-morpholin-4-ylpropyl)amino)-3-nitrophenyl)sulfonyl)-2-(3-pyridin-4-ylphenoxy)benzamide], the Ki was 959 pM.
Molecule `CC1(C)CCC(CN2CCN(c3ccc(C(=O)NS(=O)(=O)c4ccc(NCC5COCCO5)c([N+](=O)[O-])c4)c(Oc4cc5cc[nH]c5cc4F)c3)CC2)=C(c2ccc(Cl)cc2)C1` (stereo not shown) [Example 292, 4-(4-{[2-(4-chlorophenyl)-4,4-dimethylcyclohex-1-en-1-yl]methyl}piperazin-1-yl)-N-({4-[(1,4-dioxan-2-ylmethyl)amino]-3-nitrophenyl}sulfonyl)-2-[(6-fluoro-1H-indol-5-yl)oxy]benzamide] has a Ki of 191 pM.
`CC1(C)CCC(CN2CCN(c3ccc(C(=O)NS(=O)(=O)c4ccc(NCCN5CCOCC5)c([N+](=O)[O-])c4)c(Oc4cccc(Cl)c4F)c3)CC2)=C(c2ccc(Cl)cc2)C1` [Example 150, 2-(3-chloro-2-fluorophenoxy)-4-(4-{[2-(4-chlorophenyl)-4,4-dimethylcyclohex-1-en-1-yl]methyl}piperazin-1-yl)-N-({4-[(2-morpholin-4-ylethyl)amino]-3-nitrophenyl}sulfonyl)benzamide] showed a Ki of 759 pM.
`CC1(C)CCC(CN2CCN(c3ccc(C(=O)NS(=O)(=O)c4ccc(NC5CCN(C6CCOCC6)CC5)c([N+](=O)[O-])c4)c(Oc4cccc(F)c4Cl)c3)CC2)=C(c2ccc(Cl)cc2)C1` [Example 178, 2-(2-chloro-3-fluorophenoxy)-4-(4-{[2-(4-chlorophenyl)-4,4-dimethylcyclohex-1-en-1-yl]methyl}piperazin-1-yl)-N-({3-nitro-4-[(1-tetrahydro-2H-pyran-4-ylpiperidin-4-yl)amino]phenyl}sulfonyl)benzamide] gave a Ki of 175 pM.
Molecule `N#Cc1ccc(Oc2cc(N3CCN(Cc4ccccc4-c4ccc(Cl)cc4)CC3)ccc2C(=O)NS(=O)(=O)c2ccc(NCC3CCOCC3)c([N+](=O)[O-])c2)cc1` [Example 72, 4-(4-((4′-chloro-1,1′-biphenyl-2-yl)methyl)piperazin-1-yl)-2-(4-cyanophenoxy)-N-((3-nitro-4-((tetrahydro-2H-pyran-4-ylmethyl)amino)phenyl)sulfonyl)benzamide] has a Ki of 31700 pM.
`CC1(C)CC(c2ccc(Cl)cc2)=C(CN2CCN(c3ccc(C(=O)NS(=O)(=O)c4ccc(NC5CCC(N6CCOCC6)CC5)c([N+](=O)[O-])c4)c(Oc4cc5cc[nH]c5cc4F)c3)CC2)CO1` (stereo not shown) [Example 295, 4-(4-{[4-(4-chlorophenyl)-6,6-dimethyl-5,6-dihydro-2H-pyran-3-yl]methyl}piperazin-1-yl)-2-[(6-fluoro-1H-indol-5-yl)oxy]-N-({4-[(4-morpholin-4-ylcyclohexyl)amino]-3-nitrophenyl}sulfonyl)benzamide] gave a Ki of 77 pM.
For `CN1CCN(Nc2ccc(S(=O)(=O)NC(=O)c3ccc(N4CCN(CC5=C(c6ccc(Cl)cc6)CC(C)(C)CC5)CC4)cc3Oc3ccc(O)cc3Cl)cc2S(=O)(=O)C(F)(F)F)CC1` [Example 211, 2-(2-chloro-4-hydroxyphenoxy)-4-(4-{[2-(4-chlorophenyl)-4,4-dimethylcyclohex-1-en-1-yl]methyl}piperazin-1-yl)-N-({4-[(4-methylpiperazin-1-yl)amino]-3-[(trifluoromethyl)sulfonyl]phenyl}sulfonyl)benzamide], the Ki was 1340 pM.
Work on `Cc1nc2cc(Oc3cc(N4CCN(Cc5ccccc5-c5ccc(Cl)cc5)CC4)ccc3C(=O)NS(=O)(=O)c3ccc(NCC4CCOCC4)c([N+](=O)[O-])c3)ccc2s1` [Example 90, 4-(4-((4′-chloro-1,1′-biphenyl-2-yl)methyl)piperazin-1-yl)-2-((2-methyl-1,3-benzothiazol-5-yl)oxy)-N-((3-nitro-4-((tetrahydro-2H-pyran-4-ylmethyl)amino)phenyl)sulfonyl)benzamide] yielded a Ki of 10600 pM.
In the case of `CC1(C)CCC(CN2CCN(c3ccc(C(=O)NS(=O)(=O)c4ccc(NCC5CCOCC5)c([N+](=O)[O-])c4)c(Oc4ccccc4-c4ccn[nH]4)c3)CC2)=C(c2ccc(Cl)cc2)C1` [Example 408, 4-(4-{[2-(4-chlorophenyl)-4,4-dimethylcyclohex-1-en-1-yl]methyl}piperazin-1-yl)-N-({3-nitro-4-[(tetrahydro-2H-pyran-4-ylmethyl)amino]phenyl}sulfonyl)-2-[2-(1H-pyrazol-5-yl)phenoxy]benzamide], the Ki is reported as 1160 pM.
With `CC1(C)CCC(CN2CCN(c3ccc(C(=O)NS(=O)(=O)c4ccc(NC5CCN(CCN6CCOCC6)CC5)c([N+](=O)[O-])c4)c(Oc4cccc(Cl)c4)c3)CC2)=C(c2ccc(Cl)cc2)C1` [Example 190, 2-(3-chlorophenoxy)-4-(4-{[2-(4-chlorophenyl)-4,4-dimethylcyclohex-1-en-1-yl]methyl}piperazin-1-yl)-N-[(4-{[1-(2-morpholin-4-ylethyl)piperidin-4-yl]amino}-3-nitrophenyl)sulfonyl]benzamide] the Ki was 77 pM.
In the case of `CC1(C)CCC(CN2CCN(c3ccc(C(=O)NS(=O)(=O)c4ccc(NC5CCN(C6COC6)CC5)c([N+](=O)[O-])c4)c(Oc4cnc(N)c(Cl)c4)c3)CC2)=C(c2ccc(Cl)cc2)C1` [Example 364, 2-[(6-amino-5-chloropyridin-3-yl)oxy]-4-(4-{[2-(4-chlorophenyl)-4,4-dimethylcyclohex-1-en-1-yl]methyl}piperazin-1-yl)-N-({3-nitro-4-[(1-oxetan-3-ylpiperidin-4-yl)amino]phenyl}sulfonyl)benzamide], the Ki is reported as 14 pM.
Work on `CN1CCC(O)(CNc2ccc(S(=O)(=O)NC(=O)c3ccc(N4CCN(CC5=C(c6ccc(Cl)cc6)CC(C)(C)CC5)CC4)cc3Oc3cccc(F)c3)cc2[N+](=O)[O-])CC1` [Example 198, 4-(4-{[2-(4-chlorophenyl)-4,4-dimethylcyclohex-1-en-1-yl]methyl}piperazin-1-yl)-2-(3-fluorophenoxy)-N-[(4-{[(4-hydroxy-1-methylpiperidin-4-yl)methyl]amino}-3-nitrophenyl)sulfonyl]benzamide] yielded a Ki of less than 10 pM.
`CC1(C)CCC(CN2CCN(c3ccc(C(=O)NS(=O)(=O)c4cnc(OCC5(F)CCN(CC(F)F)CC5)c(Cl)c4)c(Oc4cnc(N)c(Cl)c4)c3)CC2)=C(c2ccc(Cl)cc2)C1` [Example 403, 2-[(6-amino-5-chloropyridin-3-yl)oxy]-N-[(5-chloro-6-{[1-(2,2-difluoroethyl)-4-fluoropiperidin-4-yl]methoxy}pyridin-3-yl)sulfonyl]-4-(4-{[2-(4-chlorophenyl)-4,4-dimethylcyclohex-1-en-1-yl]methyl}piperazin-1-yl)benzamide] gave a Ki of 2140 pM.
`CC1(C)CCC(CN2CCN(c3ccc(C(=O)NS(=O)(=O)c4ccc(NCC5CCOCC5)c([N+](=O)[O-])c4)c(Oc4cnc(N)c(C(N)=O)c4)c3)CC2)=C(c2ccc(Cl)cc2)C1` [Example 351, 2-amino-5-(5-(4-{[2-(4-chlorophenyl)-4,4-dimethylcyclohex-1-en-1-yl]methyl}piperazin-1-yl)-2-{[({3-nitro-4-[(tetrahydro-2H-pyran-4-ylmethyl)amino]phenyl}sulfonyl)amino]carbonyl}phenoxy)nicotinamide] gave a Ki of 2840 pM.
Work on `O=C(NS(=O)(=O)c1ccc(NCC2CCOCC2)c([N+](=O)[O-])c1)c1ccc(N2CCN(Cc3cc(CCN4CCCC4)ccc3-c3ccc(Cl)cc3)CC2)cc1Oc1cccc(Cl)c1` [Example 53, 2-(3-chlorophenoxy)-4-(4-((4′-chloro-4-(2-pyrrolidin-1-ylethyl)-1,1′-biphenyl-2-yl)methyl)piperazin-1-yl)-N-((3-nitro-4-((tetrahydro-2H-pyran-4-ylmethyl)amino)phenyl)sulfonyl)benzamide] yielded a Ki of 77 pM.
In the case of `CC1(C)CCC(CN2CCN(c3ccc(C(=O)NS(=O)(=O)c4ccc(NC5CCN(C6CCOCC6)CC5)c([N+](=O)[O-])c4)c(Oc4cc(F)cc5[nH]ccc45)c3)CC2)=C(c2ccc(Cl)cc2)C1` [Example 210, 4-(4-{[2-(4-chlorophenyl)-4,4-dimethylcyclohex-1-en-1-yl]methyl}piperazin-1-yl)-2-[(6-fluoro-1H-indol-4-yl)oxy]-N-({3-nitro-4-[(1-tetrahydro-2H-pyran-4-ylpiperidin-4-yl)amino]phenyl}sulfonyl)benzamide], the Ki is reported as 20 pM.
